“Also recorded” adds a separate entry of the source. Read-outs that look alike come from different tables or passages of the source.
How the values were obtained:
[1] = biological target: T1, Electrical (Torpedo californica) AChE (type VI-S) (Electrophorus electricus, UniProt O42275); assay: biochemical; type: biochemical
T1 construct: purchased Sigma-Aldrich (Steinheim, Germany) type VI-S
Description: (§1) Fluka provided potassium hydroxide, sodium hydrogen carbonate, potassium dihydrogen phosphate, and dipotassium hydrogen phosphate. Sigma-Aldrich (Steinheim, Germany) provided BuChE (E.C.3.1.1.8, from equine serum), Electrical ([…]) AChE (type VI-S), acetylthiocholine iodide, 5,5⸍-dithiobis [2-nitrobenzoic acid]
(§2) In order to set the derivatives’ stock solutions, they were dissolved in the dimethyl sulfoxide (DMSO). Then, we diluted them in the absolute ethanol for obtaining 3 varying concentrations for assay. The experiments were done in triplicate for each concentration. The assay solution included […], […] of phosphate buffer (0.1M, pH = 8), […] of 5 IU/mL butryl cholinesterase solution, and […] of inhibitor. Afterwards, the product was pre-incubated at 25 ᵒC for 10 min. Then, […] of butyrylthiocholine iodide was added as the substrate to the 24 wells for starting the reaction. […] For justifying non-enzymatic reaction, we conducted assays with a blank having all components except ButChE.
Moreover, AChE took the same assay for obtaining the derivatives’ anti-AChE activity.

[2] = biological target: T2, BuChE (E.C.3.1.1.8, from equine serum) (Equus caballus, UniProt P81908); assay: biochemical; type: biochemical
T2 construct: BuChE (E.C.3.1.1.8, from equine serum); purchased Sigma-Aldrich (Steinheim, Germany); host or cells: equine serum
Description: as §1
as §2, with “ButChE. […]” for “ButChE.”

[3] = read-out: AChE Inhibition [IC50 (μM)]
[4] = read-out: BuChE Inhibition [IC50 (μM)]
[5] = Ellman's method, average ±SD, triplicate, read-out: AChE Inhibition [IC50 (μM)]
[6] = Ellman's method, average ±SD, triplicate, read-out: BuChE Inhibition [IC50 (μM)]

T2 sequence (P81908 whole entry): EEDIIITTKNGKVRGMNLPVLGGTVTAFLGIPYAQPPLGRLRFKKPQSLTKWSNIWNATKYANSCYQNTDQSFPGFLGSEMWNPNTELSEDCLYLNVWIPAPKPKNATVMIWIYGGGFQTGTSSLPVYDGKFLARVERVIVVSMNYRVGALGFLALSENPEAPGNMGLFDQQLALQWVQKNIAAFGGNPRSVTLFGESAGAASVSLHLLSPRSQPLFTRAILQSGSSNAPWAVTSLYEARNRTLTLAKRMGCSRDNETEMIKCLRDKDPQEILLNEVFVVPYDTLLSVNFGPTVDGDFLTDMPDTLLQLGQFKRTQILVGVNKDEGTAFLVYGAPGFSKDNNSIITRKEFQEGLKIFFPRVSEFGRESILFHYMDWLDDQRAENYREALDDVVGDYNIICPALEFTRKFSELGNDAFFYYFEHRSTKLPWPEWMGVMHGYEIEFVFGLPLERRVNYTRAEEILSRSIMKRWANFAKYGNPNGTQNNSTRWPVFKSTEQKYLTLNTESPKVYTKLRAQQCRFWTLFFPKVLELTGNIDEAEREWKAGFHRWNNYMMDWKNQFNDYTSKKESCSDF
T1 sequence (O42275 24-633): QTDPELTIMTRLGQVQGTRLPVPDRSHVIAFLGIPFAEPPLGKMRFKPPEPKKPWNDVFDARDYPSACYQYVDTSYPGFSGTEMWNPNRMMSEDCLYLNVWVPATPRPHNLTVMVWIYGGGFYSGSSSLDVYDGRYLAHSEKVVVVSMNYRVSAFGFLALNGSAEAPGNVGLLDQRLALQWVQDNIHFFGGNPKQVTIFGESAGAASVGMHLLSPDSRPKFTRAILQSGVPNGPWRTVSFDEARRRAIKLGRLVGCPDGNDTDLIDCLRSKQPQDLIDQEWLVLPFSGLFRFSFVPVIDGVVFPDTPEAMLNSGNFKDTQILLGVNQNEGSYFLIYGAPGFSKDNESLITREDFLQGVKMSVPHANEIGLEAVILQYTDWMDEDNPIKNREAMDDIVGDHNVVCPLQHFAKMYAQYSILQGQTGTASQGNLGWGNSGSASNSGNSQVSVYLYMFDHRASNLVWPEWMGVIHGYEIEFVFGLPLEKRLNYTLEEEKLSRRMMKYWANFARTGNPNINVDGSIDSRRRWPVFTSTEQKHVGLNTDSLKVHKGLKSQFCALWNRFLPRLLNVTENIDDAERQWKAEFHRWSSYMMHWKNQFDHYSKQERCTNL

Structure (SMILES)	IC50 [1, 5] [µM]	IC50 [2, 6] [µM]	also measured
COc1cc2ncn(Cc3ccc[n+](Cc4ccc(F)cc4)c3)c(=O)c2cc1OC [BOP-7, 1-(4-Flourobenzyl)-3-((6,7-dimethoxy-4-oxoquinazolin-3(4H)-yl)methyl) pyridin-1-ium chloride]	–	–	IC50 [1, 3]: 21.92 ± 0.2 µM; IC50 [2, 4]: > 100 µM
O=c1c2ccccc2ncn1Cc1ccc[n+](Cc2cccc(Br)c2)c1 [BOP-1, 1-(3-Bromobenzyl)-3-((4-oxoquinazolin-3(4H)-yl)methyl) pyridin-1-ium bromide]	5.9 ± 0.07	–	IC50 [2]: 6.76 ± 0.04 µM
O=c1c2ccccc2ncn1Cc1ccc[n+](Cc2ccc(Cl)cc2)c1 [BOP-2, 1-(4-Chlorobenzyl)-3-((4-oxoquinazolin-3(4H)-yl)methyl) pyridin-1-ium chloride]	47.1 ± 0.48	29 ± 0.43	–
COc1cc2ncn(Cc3ccc[n+](Cc4ccccc4)c3)c(=O)c2cc1OC [BOP-10, 1-Benzyl-3-((6,7-dimethoxy-4-oxoquinazolin-3(4H)-yl)methyl) pyridin-1-ium bromide]	10.1 ± 0.28	18.8 ± 0.34	–
O=c1c2ccccc2ncn1Cc1ccc[n+](Cc2ccc(F)cc2)c1 [BOP-3, 1-(4-Flourobenzyl)-3-((4-oxoquinazolin-3(4H)-yl)methyl) pyridin-1-ium chloride]	–	–	IC50 [1, 3]: > 100 µM; IC50 [2, 4]: 70.43 ± 0.41 µM
O=c1c2ccccc2ncn1Cc1ccc[n+](Cc2ccccc2)c1 [BOP-5, 1-Benzyl-3-((4-oxoquinazolin-3(4H)-yl)methyl) pyridin-1-ium bromide]	41.2 ± 0.62	12.63 ± 0.11	–
COc1cc2ncn(Cc3ccc[n+](Cc4cccc(Br)c4)c3)c(=O)c2cc1OC [BOP-6, 1-(3-Bromobenzyl)-3-((6,7-dimethoxy-4-oxoquinazolin-3(4H)-yl)methyl) pyridin-1-ium bromide]	6.77 ± 0.24	8.77 ± 0.11	–
COc1cc2ncn(Cc3ccc[n+](Cc4ccc(Cl)cc4)c3)c(=O)c2cc1OC.[Cl-] [BOP-8, 1-(4-Chlorobenzyl)-3-((6,7-dimethoxy-4-oxoquinazolin-3(4H)-yl)methyl) pyridin-1-ium chloride]	–	> 100	IC50 [1]: 1.11 ± 0.09 µM; BuChE inhibition (result in words) ([2]; Ellman's method): no inhibitory activity; also recorded: no inhibition
COc1cc2ncn(Cc3ccc[n+](Cc4ccc(C#N)cc4)c3)c(=O)c2cc1OC [BOP-9, 1-(4-Cyanobenzyl)-3-((6,7-dimethoxy-4-oxoquinazolin-3(4H)-yl)methyl) pyridin-1-ium bromide]	> 100	> 100	–
N#Cc1ccc(C[n+]2cccc(Cn3cnc4ccccc4c3=O)c2)cc1 [BOP-4, 1-(4-Cyanobenzyl)-3-((4-oxoquinazolin-3(4H)-yl)methyl) pyridin-1-ium bromide]	> 100	> 100	–
